Reference: the supplement of paper PMC8741786
≈ marks a conversion by molar mass, not a printed value.

Tests used:
Neisseria meningitidis = assay: minimum inhibitory concentration (ETEST)
Procedure: (§1)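 Oropharyngeal Neisseria isolates from MSM and employees in Belgium were identified to species by MALDI-TOF MS. MICs of azithromycin, ceftriaxone and ciprofloxacin were determined by ETEST on GC agar after 24 h at 36.5 °C and 5-7% CO2, in mg/L. Values beyond the strip range are reported as >256 (azithromycin) or <0.016 (ceftriaxone); isolates that did not grow are NA.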

Neisseria cinerea = assay: minimum inhibitory concentration (ETEST); settings: population: general population, antibiotic use in previous 6 months: No
Procedure: as §1

[1] = isolate id (sample isolate): 19040471_1, population: MSM, antibiotic use in previous 6 months: No
[2] = isolate id (sample isolate): 19040855_1, population: MSM, antibiotic use in previous 6 months: No
[3] = isolate id (sample isolate): 19040874_2, population: MSM, antibiotic use in previous 6 months: No
[4] = isolate id (sample isolate): 19040900_2, population: MSM, antibiotic use in previous 6 months: No
[5] = isolate id (sample isolate): 19042150_2, population: MSM, antibiotic use in previous 6 months: Yes
[6] = isolate id (sample isolate): 19042756_3, population: MSM, antibiotic use in previous 6 months: Yes
[7] = isolate id (sample isolate): 19043201_1, population: MSM, antibiotic use in previous 6 months: No
[8] = isolate id (sample isolate): 19043201_2, population: MSM, antibiotic use in previous 6 months: No
[9] = isolate id (sample isolate): 19043274_1, population: MSM, antibiotic use in previous 6 months: Yes
[10] = isolate id (sample isolate): 19043274_2, population: MSM, antibiotic use in previous 6 months: Yes
[11] = isolate id (sample isolate): 19051853_1, population: MSM, antibiotic use in previous 6 months: No
[12] = isolate id (sample isolate): 19052394_3, population: MSM, antibiotic use in previous 6 months: Yes
[13] = isolate id (sample isolate): 19052434_1, population: MSM, antibiotic use in previous 6 months: Yes
[14] = isolate id (sample isolate): 19060069_1, population: MSM, antibiotic use in previous 6 months: Yes
[15] = isolate id (sample isolate): 19060069_2, population: MSM, antibiotic use in previous 6 months: Yes
[16] = isolate id (sample isolate): 19060089_2, population: MSM, antibiotic use in previous 6 months: Yes
[17] = isolate id (sample isolate): 19061666_1, population: MSM, antibiotic use in previous 6 months: Yes
[18] = isolate id (sample isolate): 19062990_1, population: MSM, antibiotic use in previous 6 months: Yes
[19] = isolate id (sample isolate): 19070019_2, population: MSM, antibiotic use in previous 6 months: No
[20] = isolate id (sample isolate): 19070019_4, population: MSM, antibiotic use in previous 6 months: No
[21] = isolate id (sample isolate): 19070047_1, population: MSM, antibiotic use in previous 6 months: No
[22] = isolate id (sample isolate): 19082621_2, population: MSM, antibiotic use in previous 6 months: No
[23] = isolate id (sample isolate): 19091461_1, population: MSM, antibiotic use in previous 6 months: No
[24] = isolate id (sample isolate): 19091461_2, population: MSM, antibiotic use in previous 6 months: No
[25] = isolate id (sample isolate): 19091973_1, population: MSM, antibiotic use in previous 6 months: No
[26] = isolate id (sample isolate): 19092429_3, population: MSM, antibiotic use in previous 6 months: No
[27] = isolate id (sample isolate): 19103457_1, population: MSM, antibiotic use in previous 6 months: No
[28] = isolate id (sample isolate): 19103457_4, population: MSM, antibiotic use in previous 6 months: No
[29] = isolate id (sample isolate): 19110394_1, population: MSM, antibiotic use in previous 6 months: No
[30] = isolate id (sample isolate): 19113049_3, population: MSM, antibiotic use in previous 6 months: No
[31] = isolate id (sample isolate): 19113049_6, population: MSM, antibiotic use in previous 6 months: No
[32] = isolate id (sample isolate): Co000765_1, population: general population, antibiotic use in previous 6 months: No
[33] = isolate id (sample isolate): Co000790_1, population: general population, antibiotic use in previous 6 months: No
[34] = isolate id (sample isolate): Co000790_3, population: general population, antibiotic use in previous 6 months: No
[35] = isolate id (sample isolate): Co000769_3
[36] = isolate id (sample isolate): Co000776_4
[37] = isolate id (sample isolate): Co000776_5
[38] = isolate id (sample isolate): Co000782_1

Row | Structure (SMILES) | minimum inhibitory concentration (Neisseria meningitidis; [1]) | minimum inhibitory concentration (Neisseria meningitidis; [2]) | minimum inhibitory concentration (Neisseria meningitidis; [3]) | minimum inhibitory concentration (Neisseria meningitidis; [4]) | minimum inhibitory concentration (Neisseria meningitidis; [5]) | minimum inhibitory concentration (Neisseria meningitidis; [6]) | minimum inhibitory concentration (Neisseria meningitidis; [7]) | minimum inhibitory concentration (Neisseria meningitidis; [8]) | minimum inhibitory concentration (Neisseria meningitidis; [9]) | minimum inhibitory concentration (Neisseria meningitidis; [10]) | minimum inhibitory concentration (Neisseria meningitidis; [11]) | minimum inhibitory concentration (Neisseria meningitidis; [12]) | minimum inhibitory concentration (Neisseria meningitidis; [13]) | minimum inhibitory concentration (Neisseria meningitidis; [14]) | minimum inhibitory concentration (Neisseria meningitidis; [15]) | minimum inhibitory concentration (Neisseria meningitidis; [16]) | minimum inhibitory concentration (Neisseria meningitidis; [17]) | minimum inhibitory concentration (Neisseria meningitidis; [18]) | minimum inhibitory concentration (Neisseria meningitidis; [19]) | minimum inhibitory concentration (Neisseria meningitidis; [20]) | minimum inhibitory concentration (Neisseria meningitidis; [21]) | minimum inhibitory concentration (Neisseria meningitidis; [22]) | minimum inhibitory concentration (Neisseria meningitidis; [23]) | minimum inhibitory concentration (Neisseria meningitidis; [24]) | minimum inhibitory concentration (Neisseria meningitidis; [25]) | minimum inhibitory concentration (Neisseria meningitidis; [26]) | minimum inhibitory concentration (Neisseria meningitidis; [27]) | minimum inhibitory concentration (Neisseria meningitidis; [28]) | minimum inhibitory concentration (Neisseria meningitidis; [29]) | minimum inhibitory concentration (Neisseria meningitidis; [30]) | minimum inhibitory concentration (Neisseria meningitidis; [31]) | minimum inhibitory concentration (Neisseria meningitidis; [32]) | minimum inhibitory concentration (Neisseria meningitidis; [33]) | minimum inhibitory concentration (Neisseria meningitidis; [34]) | minimum inhibitory concentration (Neisseria cinerea; [35]) | minimum inhibitory concentration (Neisseria cinerea; [36]) | minimum inhibitory concentration (Neisseria cinerea; [37]) | minimum inhibitory concentration (Neisseria cinerea; [38])
1 | CC[C@H]1OC(=O)[C@H](C)[C@@H](O[C@H]2C[C@@](C)(OC)[C@@H](O)[C@H](C)O2)[C@H](C)[C@@H](O[C@@H]2O[C@H](C)C[C@H](N(C)C)[C@H]2O)[C@](C)(O)C[C@@H](C)CN(C)[C@H](C)[C@@H](O)[C@]1(C)O [azithromycin] | 0.38 µg/mL (≈ 0.507 µM) | 0.25 µg/mL (≈ 0.334 µM) | 2 µg/mL (≈ 2.67 µM) | 0.75 µg/mL (≈ 1 µM) | 1.5 µg/mL (≈ 2 µM) | 0.38 µg/mL (≈ 0.507 µM) | 0.75 µg/mL (≈ 1 µM) | 0.38 µg/mL (≈ 0.507 µM) | 0.5 µg/mL (≈ 0.668 µM) | 0.38 µg/mL (≈ 0.507 µM) | 0.38 µg/mL (≈ 0.507 µM) | 0.5 µg/mL (≈ 0.668 µM) | 0.75 µg/mL (≈ 1 µM) | 1 µg/mL (≈ 1.34 µM) | 1 µg/mL (≈ 1.34 µM) | 4 µg/mL (≈ 5.34 µM) | 3 µg/mL (≈ 4.01 µM) | 0.5 µg/mL (≈ 0.668 µM) | 0.38 µg/mL (≈ 0.507 µM) | 0.38 µg/mL (≈ 0.507 µM) | 0.5 µg/mL (≈ 0.668 µM) | 0.5 µg/mL (≈ 0.668 µM) | 6 µg/mL (≈ 8.01 µM) | 4 µg/mL (≈ 5.34 µM) | 0.5 µg/mL (≈ 0.668 µM) | 0.38 µg/mL (≈ 0.507 µM) | 0.38 µg/mL (≈ 0.507 µM) | 0.25 µg/mL (≈ 0.334 µM) | 0.5 µg/mL (≈ 0.668 µM) | 0.19 µg/mL (≈ 0.254 µM) | 0.25 µg/mL (≈ 0.334 µM) | 0.5 µg/mL (≈ 0.668 µM) | 2 µg/mL (≈ 2.67 µM) | 1 µg/mL (≈ 1.34 µM) | 1 µg/mL (≈ 1.34 µM) | 24 µg/mL (≈ 32 µM) | 32 µg/mL (≈ 42.7 µM) | 2 µg/mL (≈ 2.67 µM)
2 | CO/N=C(\C(=O)N[C@@H]1C(=O)N2C(C(=O)O)=C(CSc3nc(=O)c(O)nn3C)CS[C@H]12)c1csc(N)n1 [ceftriaxone] | < 0.016 µg/mL | < 0.016 µg/mL | 0.016 µg/mL (≈ 0.0289 µM) | 0.023 µg/mL (≈ 0.0415 µM) | < 0.016 µg/mL | < 0.016 µg/mL | < 0.016 µg/mL | < 0.016 µg/mL | < 0.016 µg/mL | 0.016 µg/mL (≈ 0.0289 µM) | < 0.016 µg/mL | < 0.016 µg/mL | < 0.016 µg/mL | 0.064 µg/mL (≈ 0.115 µM) | 0.064 µg/mL (≈ 0.115 µM) | < 0.016 µg/mL | 1 µg/mL (≈ 1.8 µM) | < 0.016 µg/mL | 0.047 µg/mL (≈ 0.0847 µM) | 0.064 µg/mL (≈ 0.115 µM) | < 0.016 µg/mL | < 0.016 µg/mL | < 0.016 µg/mL | < 0.016 µg/mL | < 0.016 µg/mL | < 0.016 µg/mL | < 0.016 µg/mL | < 0.016 µg/mL | < 0.016 µg/mL | < 0.016 µg/mL | < 0.016 µg/mL | < 0.016 µg/mL | < 0.016 µg/mL | < 0.016 µg/mL | < 0.016 µg/mL | < 0.016 µg/mL | < 0.016 µg/mL | < 0.016 µg/mL
3 | O=C(O)c1cn(C2CC2)c2cc(N3CCNCC3)c(F)cc2c1=O [ciprofloxacin] | 0.003 µg/mL (≈ 0.00905 µM) | 0.004 µg/mL (≈ 0.0121 µM) | 0.004 µg/mL (≈ 0.0121 µM) | 0.004 µg/mL (≈ 0.0121 µM) | 0.002 µg/mL (≈ 0.00604 µM) | 0.008 µg/mL (≈ 0.0241 µM) | 0.003 µg/mL (≈ 0.00905 µM) | 0.003 µg/mL (≈ 0.00905 µM) | 0.004 µg/mL (≈ 0.0121 µM) | 0.004 µg/mL (≈ 0.0121 µM) | 0.004 µg/mL (≈ 0.0121 µM) | 0.002 µg/mL (≈ 0.00604 µM) | 0.006 µg/mL (≈ 0.0181 µM) | 0.006 µg/mL (≈ 0.0181 µM) | 0.004 µg/mL (≈ 0.0121 µM) | 0.002 µg/mL (≈ 0.00604 µM) | 0.064 µg/mL (≈ 0.193 µM) | 0.004 µg/mL (≈ 0.0121 µM) | 0.003 µg/mL (≈ 0.00905 µM) | 0.003 µg/mL (≈ 0.00905 µM) | 0.006 µg/mL (≈ 0.0181 µM) | 0.004 µg/mL (≈ 0.0121 µM) | 0.008 µg/mL (≈ 0.0241 µM) | 0.008 µg/mL (≈ 0.0241 µM) | 0.003 µg/mL (≈ 0.00905 µM) | 0.003 µg/mL (≈ 0.00905 µM) | 0.003 µg/mL (≈ 0.00905 µM) | 0.003 µg/mL (≈ 0.00905 µM) | 0.003 µg/mL (≈ 0.00905 µM) | 0.004 µg/mL (≈ 0.0121 µM) | 0.003 µg/mL (≈ 0.00905 µM) | 0.004 µg/mL (≈ 0.0121 µM) | 0.125 µg/mL (≈ 0.377 µM) | 0.125 µg/mL (≈ 0.377 µM) | 0.006 µg/mL (≈ 0.0181 µM) | 0.032 µg/mL (≈ 0.0966 µM) | 0.032 µg/mL (≈ 0.0966 µM) | 0.012 µg/mL (≈ 0.0362 µM)
